Data taken from patent publication US7888464B2, “Hepatitis C virus inhibitors” (Bristol-Myers Squibb Company, priority 2006, dated 2011).

What was measured:
[1] = test system: HCV replicon (strain 1b) in HUH-7 cells; experiment: HCV replicon FRET assay; format: cell-based; settings: Hepatitis C virus, Huh-7, read-out: HCV Pro Replicon (EC50)
Text: An HCV replicon whole cell system was established as described by Lohmann V, Korner F, Koch J, Herian U, Theilmann L, Bartenschlager R., Science 285(5424): 110-3 (1999). This system enabled us to evaluate the effects of our HCV Protease compounds on HCV RNA replication. Briefly, using the HCV strain 1b sequence described in the Lohmann paper (Assession number: AJ238799), an HCV cDNA was synthesized by Operon Technologies, Inc. (Alameda, Calif.), and the full-length replicon was then assembled in plasmid pGem9zf(+) (Promega, Madison, Wis.) using standard molecular biology techniques. The replicon consists of (i) the HCV 5′ UTR fused to the first 12 amino acids of the capsid protein, (ii) the neomycin phosphotransferase gene (neo), (iii) the IRES from encephalomyocarditis virus (EMCV), and (iv) HCV NS3 to NS5B genes and the HCV 3′ UTR. Plasmid DNAs were linearized with ScaI and RNA transcripts were synthesized in vitro using the T7 MegaScript transcription kit (Ambion, Austin, Tex.) according to manufacturer's directions. In vitro transcripts of the cDNA were transfected into the human hepatoma cell line, HUH-7. […] Resulting cell lines were characterized for positive and negative strand RNA production and protein production over time.
The HCV replicon FRET assay was developed to monitor the inhibitory effects of compounds described in the disclosure on HCV viral replication. HUH-7 cells, constitutively expressing the HCV replicon, were grown in Dulbecco's Modified Eagle Media (DMEM) (Gibco-BRL) containing 10% Fetal calf serum (FCS) (Sigma) and 1 mg/ml G418 (Gibco-BRL). Cells were seeded the night before (1.5×10^4 cells/well) in 96-well tissue-culture sterile plates. Compound and no compound controls were prepared in DMEM containing 4% FCS, 1:100 Penicillin/Streptomysin (Gibco-BRL), 1:100 L-glutamine and 5% DMSO in the dilution plate (0.5% DMSO final concentration in the assay). Compound/DMSO mixes were added to the cells and incubated for 4 days at 37° C. After 4 days, cells were first assessed for cytotoxicity using alamar Blue (Trek Diagnotstic Systems) for a CC50 reading. The toxicity of compound (CC50) was determined by adding 1/10th volume of alamar Blue to the media incubating the cells. After 4 h, the fluorescence signal from each well was read, with an excitation wavelength at 530 nm and an emission wavelength of 580 nm, using the Cytofluor Series 4000 (Perspective Biosystems). Plates were then rinsed thoroughly with Phosphate-Buffered Saline (PBS) (3 times 150 μl). The cells were lysed with 25 μl of a lysis assay reagent containing an HCV protease substrate (5× cell Luciferase cell culture lysis reagent (Promega #E153A) diluted to 1× with distilled water, NaCl added to 150 mM final, the FRET peptide substrate (as described for the enzyme assay above) diluted to 10 μM final from a 2 mM stock in 100% DMSO. The plate was then placed into the Cytofluor 4000 instrument which had been set to 340 nm excitation/490 nm emission, automatic mode for 21 cycles and the plate read in a kinetic mode. EC50 determinations were carried out as described for the IC50 determinations.

[2] = target: T1, HCV NS3/4A protease complex, BMS strain (genotype 1a) (UniProt P27958, species not given/STRAIN_BMS); experiment: FRET peptide assay to monitor HCV NS3/4A proteolytic activity (BMS strain); format: biochemical; settings: NS3/4A BMS strain; activity range symbols of Table 2; read-out: HCV Protease (IC50)
T1 construct: "DNA encoding the recombinant HCV NS3/4A protease complex (amino acids 1027 to 1711) for these strains" (said of H77 and J4L6S, not expressly of BMS); given for the H77/J4L6S constructs only
Text: HCV NS3 protease complexes, derived from the BMS strain, H77 strain or J4L6S strain, were generated, as described below. These purified recombinant proteins were generated for use in a homogeneous assay (see below) to provide an indication of how effective compounds of the present disclosure would be in inhibiting HCV NS3 proteolytic activity.
Serum from an HCV-infected patient was obtained from Dr. T. Wright, San Francisco Hospital. An engineered full-length cDNA (compliment deoxyribonucleic acid) template of the HCV genome (BMS strain) was constructed from DNA fragments obtained by reverse transcription-PCR(RT-PCR) of serum RNA (ribonucleic acid) and using primers selected on the basis of homology between other genotype la strains. From the determination of the entire genome sequence, a genotype la was assigned to the HCV isolate according to the classification of Simmonds et al. (See P Simmonds, K A Rose, S Graham, S W Chan, F McOmish, B C Dow, E A Follett, P L Yap and H Marsden, J. Clin. Microbiol., 31(6), 1493-1503 (1993)). […] The infectious clones, H77 (1a genotype) and J4L6S (1b genotype) were obtained from R. Purcell (NIH) and the sequences are published in Genbank (AAB67036, see Yanagi, M., Purcell, R. H., Emerson, S. U. and Bukh, J. Proc. Natl. Acad. Sci. U.S.A. 94(16), 8738-8743 (1997); AF054247, see Yanagi, M., St Claire, M., Shapiro, M., Emerson, S. U., Purcell, R. H. and Bukh, J, Virology 244 (1), 161-172. (1998)).
The H77 and J4L6S strains were used for production of recombinant NS3/4A protease complexes. DNA encoding the recombinant HCV NS3/4A protease complex (amino acids 1027 to 1711) for these strains were manipulated as described by P. Gallinari et al. (see Gallinari P, Paolini C, Brennan D, Nardi C, Steinkuhler C, De Francesco R. Biochemistry. 38(17):5620-32, (1999)). Briefly, a three-lysine solubilizing tail was added at the 3′-end of the NS4A coding region. The cysteine in the P1 position of the NS4A-NS4B cleavage site (amino acid 1711) was changed to a glycine to avoid the proteolytic cleavage of the lysine tag. Furthermore, a cysteine to serine mutation was introduced by PCR at amino acid position 1454 to prevent the autolytic cleavage in the NS3 helicase domain. The variant DNA fragment was cloned in the pET21b bacterial expression vector (Novagen) and the NS3/4A complex was expressed in Escherichia. coli strain BL21 (DE3) (Invitrogen) following the protocol described by P. Gallinari et al. (see Gallinari P, Brennan D, Nardi C, Brunetti M, Tomei L, Steinkuhler C, De Francesco R., J. Virol. 72(8):6758-69 (1998)) with modifications. Briefly, the NS3/4A protease complex expression was induced with 0.5 millimolar (mM) Isopropyl β-D-1-thiogalactopyranoside (IPTG) for 22 hours (h) at 20° C. A typical fermentation (1 Liter (L)) yielded approximately 10 grams (g) of wet cell paste. The cells were resuspended in lysis buffer (10 mL/g) consisting of 25 mM N-(2-Hydroxyethyl)piperazine-N′-(2-Ethane Sulfonic acid) (HEPES), pH 7.5, 20% glycerol, 500 mM Sodium Chloride (NaCl), 0.5% Triton X-100, 1 microgram/milliliter (“μg/mL”) lysozyme, 5 mM Magnesium Chloride (MgCl2), 1 μg/ml DnaseI, 5 mM β-Mercaptoethanol (βME), Protease inhibitor-Ethylenediamine Tetraacetic acid (EDTA) free (Roche), homogenized and incubated for 20 minutes (min) at 4° C. The homogenate was sonicated and clarified by ultra-centrifugation at 235000 g for 1 hour (h) at 4° C. Imidazole was added to the supernatant to a final concentration of 15 mM and the pH adjusted to 8.0. The crude protein extract was loaded on a Nickel-Nitrilotriacetic acid (Ni-NTA) column pre-equilibrated with buffer B (25 mM HEPES, pH 8.0, 20% glycerol, 500 mM NaCl, 0.5% Triton X-100, 15 mM imidazole, 5 mM βME). The sample was loaded at a flow rate of 1 mL/min. The column was washed with 15 column volumes of buffer C (same as buffer B except with 0.2% Triton X-100). The protein was eluted with 5 column volumes of buffer D (same as buffer C except with 200 mM Imidazole). […]

T1 sequence (P27958 1027-1657, stated change not applied, one chain of several): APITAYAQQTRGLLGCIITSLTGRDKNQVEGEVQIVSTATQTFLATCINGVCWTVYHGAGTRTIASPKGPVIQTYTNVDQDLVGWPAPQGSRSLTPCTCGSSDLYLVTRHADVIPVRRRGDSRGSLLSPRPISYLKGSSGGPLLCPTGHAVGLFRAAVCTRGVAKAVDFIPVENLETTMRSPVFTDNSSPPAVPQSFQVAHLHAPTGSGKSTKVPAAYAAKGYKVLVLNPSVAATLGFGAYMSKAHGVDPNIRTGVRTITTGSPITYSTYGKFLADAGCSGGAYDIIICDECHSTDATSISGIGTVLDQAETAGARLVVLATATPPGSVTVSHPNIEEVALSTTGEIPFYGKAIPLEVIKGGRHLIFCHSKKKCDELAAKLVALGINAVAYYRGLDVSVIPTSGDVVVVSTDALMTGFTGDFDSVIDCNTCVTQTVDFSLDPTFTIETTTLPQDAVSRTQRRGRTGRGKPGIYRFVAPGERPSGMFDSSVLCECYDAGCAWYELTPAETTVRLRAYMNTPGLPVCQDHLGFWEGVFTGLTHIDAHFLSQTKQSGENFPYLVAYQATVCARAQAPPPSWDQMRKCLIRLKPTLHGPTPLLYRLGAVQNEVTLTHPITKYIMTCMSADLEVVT

SMILES | EC50 [1] [µM] | IC50 [2] [µM]
C=C[C@@H]1C[C@]1(NC(=O)[C@@H]1C[C@@](OC)(c2ccc(-c3ccccc3)cc2)CN1C(=O)[C@H](CC(C)C)NC(=O)OC(C)(C)C)C(=O)NS(=O)(=O)C1CC1 [Cmpd 203, {(S)-1-[(2S,4R)-4-Biphenyl-4-yl-2-((S)-(1R,2S)-1-cyclopropanesulfonylaminocarbonyl-2-vinyl-cyclopropylcarbamoyl)-4-methoxy-pyrrolidine-1-carbonyl]-3-methyl-butyl}-carbamic acid tert-butyl ester] | 0.05 to 0.5 | 0.001 to 0.05
C=C[C@@H]1C[C@]1(NC(=O)[C@@H]1C[C@@](OC)(c2ccc(-c3ccccc3)cc2)CN1C(=O)[C@@H](NC(=O)OC12CC3CC(CC(C3)C1)C2)C(C)(C)C)C(=O)NS(=O)(=O)C1CC1 [Cmpd 204, {(S)-1-[(2S,4R)-4-Biphenyl-4-yl-2-((S)-(1R,2S)-1-cyclopropanesulfonylaminocarbonyl-2-vinyl-cyclopropylcarbamoyl)-4-methoxy-pyrrolidine-1-carbonyl]-2,2-dimethyl-propyl}-carbamic acid adamantan-1-yl ester] | 0.001 to 0.05 | 0.001 to 0.05
C=C[C@@H]1C[C@]1(NC(=O)[C@@H]1C[C@@](OC)(c2ccc(-c3ccccc3)cc2)CN1C(=O)[C@@H](NC(=O)OC(C)(C)C)C(C)CC)C(=O)NS(=O)(=O)C1CC1 (stereo partly drawn) [Cmpd 202, {(S)-1-[(2S,4R)-4-Biphenyl-4-yl-2-((S)-(1R,2S)-1-cyclopropanesulfonylaminocarbonyl-2-vinyl-cyclopropylcarbamoyl)-4-methoxy-pyrrolidine-1-carbonyl]-2-methyl-butyl}-carbamic acid tert-butyl ester] | 0.05 to 0.5 | 0.001 to 0.05
C=C[C@@H]1C[C@]1(NC(=O)[C@@H]1C[C@@](OC)(c2ccc(-c3ccccc3)cc2)CN1C(=O)[C@H](Nc1ccc(F)c(F)c1)C(C)(C)C)C(=O)NS(=O)(=O)C1CC1 [Cmpd 210, (2S,4R)-4-Biphenyl-4-yl-1-[(R)-2-(3,4-difluoro-phenylamino)-3,3-dimethyl-butyryl]-4-methoxy-pyrrolidine-2-carboxylic acid ((1R,2S)-1-cyclopropanesulfonylaminocarbonyl-2-vinyl-cyclopropyl)-amide] | > 0.5 | > 0.5
C=C[C@@H]1C[C@]1(NC(=O)[C@@H]1C[C@@](OC)(c2ccc(-c3ccccc3)cc2)CN1C(=O)[C@@H](NC(=O)NC(C)(C)C)C(C)(C)C)C(=O)NS(=O)(=O)C1CC1 [Cmpd 206, (2S,4R)-4-Biphenyl-4-yl-1-[(S)-2-(3-tert-butyl-ureido)-3,3-dimethyl-butyryl]-4-methoxy-pyrrolidine-2-carboxylic acid ((1R,2S)-1-cyclopropanesulfonylaminocarbonyl-2-vinyl-cyclopropyl)-amide] | 0.001 to 0.05 | 0.001 to 0.05
C=C[C@@H]1C[C@]1(NC(=O)[C@@H]1C[C@@](OCc2ccccc2)(c2ccc(-c3ccccc3)cc2)CN1C(=O)[C@@H](NC(=O)OC(C)(C)C)C(C)(C)C)C(=O)NS(=O)(=O)C1CC1 [Cmpd 108] | 0.001 to 0.05 | 0.001 to 0.05
COC1(c2ccc(-c3ccccc3)cc2)CC(C(=O)NC2(C(=O)NS(=O)(=O)C3CC3)CC2C(F)F)N(C(=O)C(NC(=O)OC(C)(C)C)C(C)(C)C)C1 (stereo not drawn) [Cmpd 109] | 0.05 to 0.5 | 0.001 to 0.05
C=C[C@@H]1C[C@]1(NC(=O)[C@@H]1C[C@@](OC)(c2ccc(-c3ccccc3)cc2)CN1C(=O)[C@@H](Nc1ccc(F)c(F)c1)C(C)(C)C)C(=O)NS(=O)(=O)C1CC1 [Cmpd 209, (2S,4R)-4-Biphenyl-4-yl-1-[(S)-2-(3,4-difluoro-phenylamino)-3,3-dimethyl-butyryl]-4-methoxy-pyrrolidine-2-carboxylic acid ((1R,2 S)-1-cyclopropanesulfonylaminocarbonyl-2-vinyl-cyclopropyl)-amide] | 0.001 to 0.05 | 0.001 to 0.05
C=CCCCCC[C@H](NC(=O)OC(C)(C)C)C(=O)N1C[C@](OC)(c2ccc(-c3ccccc3)cc2)C[C@H]1C(=O)N[C@]1(C(=O)NS(=O)(=O)C2CC2)C[C@H]1C=C [Cmpd 107] | > 0.5 | 0.05 to 0.5
